Results as given in patent publication US9435809B2, “Method of treating and reducing the risk of acute myelogenous leukemia” (Memorial Sloan-Kettering Cancer Center, priority 2011, dated 2016).
Entries after “also recorded” stand apart in the source; their conditions may differ.

Assays:
Kasumi-1 cells = assay: Growth of Kasumi-1 cells; type: cell-based, human; details: Lys-CoA-Tat and DDDD-Tat 50 μM; C646 concentration not stated
Method: (§1) Leukemia cells were obtained from two AML patients with t(8;21) by Ficoll-hypaque separation. Informed consent was obtained from the patients, according to institutional (IRB) guidelines. The cell viabilities of the primary leukemia cells, Kasumi-1 cells, HL60 cells and human CD34^+ cells were assessed by triplicate counting of trypan blue dye-excluding cells under light microscopy. The cell morphology was evaluated by Wright's staining of cells prepared by cytospin centrifugation. Blast cells were isolated from the bone marrow and spleen of the mice with AE9a or MLL-AF9 driven leukemia, and treated for 12 hours with Lys-CoA-Tat or DDDD-Tat (at 50 μM), or C646 vs. C37 (at 20 μM). Female C57Bl/6 mice were sublethally irradiated with 475 cGy, and then injected with 3×10^6 treated blast cells via tail vein.
(§2) Cells were treated with p300 inhibitors at different concentrations in a 96-well plate. After 72 hours, 0.1 mg MTT was added to each well. The samples were incubated at 37° C. for 4 hours and the absorbance was measured at 570 nm by spectrophotometry.

MO-91 cells = assay: MTT growth assay of AML cell lines: MO-91; type: cell-based; details: at 5 μM; MTT assay after 72 hours
Method: as §2

U937 cells = assay: MTT growth assay of AML cell lines: U937; type: cell-based; details: at 5 μM; MTT assay after 72 hours
Method: as §2

NB4 cells = assay: MTT growth assay of AML cell lines: NB4; type: cell-based; details: at 5 μM; MTT assay after 72 hours
Method: as §2

HEL cells = assay: MTT growth assay of AML cell lines: HEL; type: cell-based; details: at 5 μM; MTT assay after 72 hours
Method: as §2

THP-1 cells = assay: MTT growth assay of AML cell lines: THP-1; type: cell-based; details: at 5 μM; MTT assay after 72 hours
Method: as §2

Mono-Mac-1 cells = assay: MTT growth assay of AML cell lines: Mono-Mac-1; type: cell-based; details: at 5 μM; MTT assay after 72 hours
Method: as §2

HL60 cells = assay: MTT growth assay of AML cell lines: HL60; type: cell-based; details: at 5 μM; MTT assay after 72 hours
Method: as §2

[1] = system: acetylated A-EK43 (AML1-ETO); assay: A-EK43 acetylation in Kasumi-1 cells (IP / Western blot); type: cell-based, human; details: Lys-CoA-Tat 50 μM, C646 10 or 20 μM for 24 hours
From the text: (§3) Anti-p300 (Millipore or Santa Cruz), anti-Flag (Sigma), anti-HA (Santa Cruz), anti-ETO (generated in the Roeder lab or Santa Cruz), anti-AML1 (Zhao, X. et al, Genes Dev 22, 640, 2008), anti-acetylated lysine (Stressgen), anti-acetylated Histone H3 (Millipore), anti-Tubulin (Sigma), anti-TAFII250 (generated in the Roeder lab) and anti-TAF7 (generated in the Roeder lab) antibodies were used. Two anti-acetylated AML1-ETO polyclonal antibodies were generated by immunizing rabbits with the synthetic peptides (TALSPGK [acetylated] MSEA SEQ ID NO: 10 or LAGK [acetylated] LRSGDRS SEQ ID NO: 11) conjugated to KLH. The polyclonal antiserum was collected and purified using a peptide affinity column. The affinity of the antibodies against acetyl-lysine AML1-ETO was measured by dot blot assays. For the dot blot assays, 5 pmol of peptide (measured by Ellman's reagent) was spotted onto a nitrocellulose membrane. The control peptides were as follows: AML1-ETOK24 peptide (TALSPGKMSEA) (SEQ ID NO: 10) and AML1-ETOK43 peptide (LAGK LRSGDRS) (SEQ ID NO: 11).
(§4) The Flag-AE, Flag-AE-ΔNHR1 (aa245-436), Flag-AE-ΔNHR2, Flag-ETO, Flag-ETO-ΔNHR1 and Flag-ETO-ΔNHR2 cDNAs were cotransfected into 80% confluent 293T cells using the FuGene 6 reagent. After 36 hours the cells were lysed in RIPA buffer with 1 mM DTT and DNAse I 1 μg/mL and a proteinase inhibitor cocktail (Roche), and incubated on ice for 30 minutes. […]

histone H3 = assay: Histone H3 acetylation in Kasumi-1 cells (Western blot); type: cell-based, human; details: Lys-CoA-Tat 50 μM, C646 10 or 20 μM for 24 hours
From the text: as §3, §4

Id1, p21 and Egr1 mRNA = assay: qPCR of AML1-ETO activated target genes in Kasumi-1 cells; type: cell-based, human; details: 24 hours, Lys-CoA-Tat 50 μM, C646 20 μM
Method: The RNA extraction and cDNA generation procedures were described above. The reverse transcription reaction was performed for 10 min at 25° C., 50 min at 50° C., 5 min at 85° C. and 20 min at 37° C. Real-time quantitative PCR was performed using a TaqMan 7500 sequence detector system (Applied Biosystems). The thermal cycle conditions were:
50° C. for 2 min, 95° C. for 10 min to activate Amplitaq Gold DNA polymerase, denaturation at 95° C. for 15 seconds and anneal/extension at 60° C. for 1 min (45 cycles). Quantitative PCR for HPRT was performed to normalize for cDNA loading. The relative quantification of gene expression was calculated using the method […], as described by the manufacturer.

[2] = system: AE9a expressing mouse leukemia cells; assay: AE9a mouse AML model, leukemia cells treated ex vivo and injected; type: in vivo
Method: as §1
(§5) Assays were set up in triplicates and the results expressed as the mean±SD. Statistical analyses were performed using Student's t-test. Survival functions were estimated using the Kaplan-Meier method and compared by the log-rank test.

[3] = system: MLL-AF9 expressing mouse leukemia cells; assay: MLL-AF9 mouse leukemia model, leukemia cells treated ex vivo and injected; type: in vivo; details: cells treated ex vivo 12 hours with 50 μM Lys-CoA-Tat/DDDD-Tat or 20 μM C646/C37; sublethally irradiated recipients
Method: as §1, §5

[4] = AE9a cells treated ex vivo 12 hours, 50 μM Lys-CoA-Tat vs DDDD-Tat or 20 μM C646 vs C37

CC1=NN(c2ccc(C(=O)O)cc2)C(=O)/C1=C\c1ccc(-c2cc(C)c(C)cc2[N+](=O)[O-])o1 [C646]
growth of Kasumi-1 cells (Kasumi-1 cells): as did C646
growth of MO-91 cells (MO-91 cells): inhibited the growth
growth of U937 cells (U937 cells): inhibited the growth
growth of NB4 cells (NB4 cells): inhibited the growth
growth of HEL cells (HEL cells): inhibited the growth
growth of THP-1 cells (THP-1 cells): minimal effect
growth of Mono-Mac-1 cells (Mono-Mac-1 cells): minimal effect
growth of HL60 cells (HL60 cells): minimal effect
level of acetylated A-EK43 [1]: decreased the level; also recorded: decreased acetylation
level of acetylated histone H3 (histone H3): decreased the level
expression of AML1-ETO activated target genes (Id1, p21 and Egr1 mRNA) (Id1, p21 and Egr1 mRNA): decreased the level; also recorded: downregulated expression
Percent of GFP+ C-Kit+ cells in peripheral blood [2, 4]: reduced the number; also recorded: significantly less
WBC counts [2, 4]: lower white blood counts; also recorded: significantly lower
platelet count (PLT) [2, 4]: less thrombocytopenia; also recorded: higher
red blood cell count (RBC) [2, 4]: less anemia; also recorded: higher
Median survival of AE9a mice ([2]; cells treated ex vivo 12 hours with 50 μM Lys-CoA-Tat/DDDD-Tat or 20 μM C646/C37, sublethally irradiated recipients): 43 days
Median survival of MLL-AF9 mice [3]: 28 days
